Key:
Assay type in all cases: in vivo
[1] = tested on: Echinochloa oryzacola Vasing.; assay: Test Example 2: herbicidal activity, application during weed generation in submerged conditions; conditions: Eighteenth Table; application herbicide amount 320 g/ha
Procedure, shortened: (§1)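 Paddy-type pot test: flooded soil, 4 cm depth, greenhouse 25–30 °C. Emulsion formulation diluted in water, applied to water surface at 1–2 leaf stage; rate expressed as g/ha. Read-out at 3 wk, 0–5 score.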

Monochoria vaginalis = assay: as above; conditions: Eighteenth Table; application herbicide amount 320 g/ha
Procedure, shortened: as §1

Scirpus juncoides = assay: as above; conditions: Eighteenth Table; application herbicide amount 320 g/ha
Procedure, shortened: as §1

Abutilon theophrasti = assay: Test Example 4: herbicidal effect by application to foliage (diluvial soil, plastic box); conditions: for M (Abutilon theophrasti) herbicidal effect grade: foliage application
Procedure, shortened: (§2)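 Read-out is a 0–5 visual grade of herbicidal ratio (5: ≥90%, almost withered; 0: ≤5%) taken three weeks after treatment. Compound was applied as a diluted emulsion to stem and leaf parts of 14-day greenhouse-grown plants (25° C. to 30° C.) at rates expressed as g/ha.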

Alopecurus myosuroides = assay: as above; conditions: for J (Alopecurus myosuroides) herbicidal effect grade: foliage application
Procedure, shortened: as §2

Amaranthus retroflexus = assay: as above; conditions: for N (Amaranthus retroflexus) herbicidal effect grade: foliage application
Procedure, shortened: as §2

Apera spica-venti. = assay: as above; conditions: for L (Apera spica-venti.) herbicidal effect grade: foliage application
Procedure, shortened: as §2

Avena fatua = assay: as above; conditions: for I (Avena fatua) herbicidal effect grade: foliage application
Procedure, shortened: as §2

Chenopodium album = assay: as above; conditions: for O (Chenopodium album) herbicidal effect grade: foliage application
Procedure, shortened: as §2

Digitaria ciliaris = assay: as above; conditions: for F (Digitaria ciliaris) herbicidal effect grade: foliage application
Procedure, shortened: as §2

[2] = tested on: Echinochloa crus-galli var. crus-galli; assay: as above; conditions: for H (Echinochloa crus-galli var. crus-galli) herbicidal effect grade: foliage application
Procedure, shortened: as §2

Galium spurium = assay: as above; conditions: for Q (Galium spurium) herbicidal effect grade: foliage application
Procedure, shortened: as §2

Lolium multiflorum Lam. = assay: as above; conditions: for K (Lolium multiflorum Lam.) herbicidal effect grade: foliage application
Procedure, shortened: as §2

Setaria viridis = assay: as above; conditions: for G (Setaria viridis) herbicidal effect grade: foliage application
Procedure, shortened: as §2

Veronica persica = assay: as above; conditions: for R (Veronica persica) herbicidal effect grade: foliage application
Procedure, shortened: as §2

[3] = Application herbicide amount 320 g/ha
[4] = application to foliage, application herbicide amount 320 g/ha

SMILES | A (Echinochloa oryzicola Vasing.) herbicidal ratio grade [1] | C (Monochoria vaginalis) herbicidal ratio grade (Monochoria vaginalis) | B (Scirpus juncoides) herbicidal ratio grade (Scirpus juncoides) | M (Abutilon theophrasti) herbicidal effect grade (Abutilon theophrasti; 320 g/ha) | J (Alopecurus myosuroides) herbicidal effect grade (Alopecurus myosuroides; 320 g/ha) | N (Amaranthus retroflexus) herbicidal effect grade (Amaranthus retroflexus; 320 g/ha) | L (Apera spica-venti.) herbicidal effect grade (Apera spica-venti.; 320 g/ha) | I (Avena fatua) herbicidal effect grade (Avena fatua; 320 g/ha) | O (Chenopodium album) herbicidal effect grade (Chenopodium album; 320 g/ha) | F (Digitaria ciliaris) herbicidal effect grade (Digitaria ciliaris; 320 g/ha) | H (Echinochloa crus-galli var. crus-galli) herbicidal effect grade ([2]; 320 g/ha) | Q (Galium spurium) herbicidal effect grade (Galium spurium; 320 g/ha) | K (Lolium multiflorum Lam.) herbicidal effect grade (Lolium multiflorum Lam.; 320 g/ha) | G (Setaria viridis) herbicidal effect grade (Setaria viridis; 320 g/ha) | R (Veronica persica) herbicidal effect grade (Veronica persica; 320 g/ha) | M (Abutilon theophrasti) herbicidal effect grade (Abutilon theophrasti; [3]) | J (Alopecurus myosuroides) herbicidal effect grade (Alopecurus myosuroides; [3]) | N (Amaranthus retroflexus) herbicidal effect grade (Amaranthus retroflexus; [3]) | L (Apera spica-venti.) herbicidal effect grade (Apera spica-venti.; [3]) | I (Avena fatua) herbicidal effect grade (Avena fatua; [3]) | other results
CC(C)[S+]([O-])c1nnc2c(C(=O)Nc3nnnn3C)ccc(C(F)(F)F)n12 (stereo not drawn) [2-032] | 5 (Herbicidal ratio of 90% or more (almost completely withered)) | 5 (Herbicidal ratio of 90% or more (almost completely withered)) | 5 (Herbicidal ratio of 90% or more (almost completely withered)) | 5 (Herbicidal ratio of 90% or more (almost completely withered)) | 3 (Herbicidal ratio of 40% or more and less than 70%) | 5 (Herbicidal ratio of 90% or more (almost completely withered)) | 5 (Herbicidal ratio of 90% or more (almost completely withered)) | 5 (Herbicidal ratio of 90% or more (almost completely withered)) | 5 (Herbicidal ratio of 90% or more (almost completely withered)) | 5 (Herbicidal ratio of 90% or more (almost completely withered)) | 5 (Herbicidal ratio of 90% or more (almost completely withered)) | 5 (Herbicidal ratio of 90% or more (almost completely withered)) | 4 (Herbicidal ratio of 70% or more and less than 90%) | 5 (Herbicidal ratio of 90% or more (almost completely withered)) | 5 (Herbicidal ratio of 90% or more (almost completely withered)) | – | – | – | – | – | –
O=C(Nc1nnco1)c1ccc(C(F)(F)F)n2c(N3CCCC3)nnc12 [1-139] | 4 (Herbicidal ratio of 70% or more and less than 90%) | 3 (Herbicidal ratio of 40% or more and less than 70%) | 3 (Herbicidal ratio of 40% or more and less than 70%) | – | – | – | – | – | – | – | – | – | – | – | – | 3 (Herbicidal ratio of 40% or more and less than 70%) | 0 (Herbicidal ratio of 5% or less (almost no effect)) | 4 (Herbicidal ratio of 70% or more and less than 90%) | 0 (Herbicidal ratio of 5% or less (almost no effect)) | 1 (Herbicidal ratio of 5% or more and less than 20%) | O (Chenopodium album) herbicidal effect grade (Chenopodium album; [3]): 5 (Herbicidal ratio of 90% or more (almost completely withered)); F (Digitaria ciliaris) herbicidal effect grade (Digitaria ciliaris; [3]): 5 (Herbicidal ratio of 90% or more (almost completely withered)); H (Echinochloa crus-galli var. crus-galli) herbicidal effect grade [2, 3]: 5 (Herbicidal ratio of 90% or more (almost completely withered)); Q (Galium spurium) herbicidal effect grade (Galium spurium; [3]): 2 (Herbicidal ratio of 20% or more and less than 40%); K (Lolium multiflorum Lam.) herbicidal effect grade (Lolium multiflorum Lam.; [3]): 1 (Herbicidal ratio of 5% or more and less than 20%); G (Setaria viridis) herbicidal effect grade (Setaria viridis; [3]): 3 (Herbicidal ratio of 40% or more and less than 70%); R (Veronica persica) herbicidal effect grade (Veronica persica; [3]): 5 (Herbicidal ratio of 90% or more (almost completely withered))
Cn1nnnc1NC(=O)c1ccc(C(F)(F)F)n2c(C[S+](C)[O-])nnc12 (stereo not drawn) [2-033] | 4 (Herbicidal ratio of 70% or more and less than 90%) | 4 (Herbicidal ratio of 70% or more and less than 90%) | 3 (Herbicidal ratio of 40% or more and less than 70%) | 5 (Herbicidal ratio of 90% or more (almost completely withered)) | 4 (Herbicidal ratio of 70% or more and less than 90%) | 5 (Herbicidal ratio of 90% or more (almost completely withered)) | 5 (Herbicidal ratio of 90% or more (almost completely withered)) | 5 (Herbicidal ratio of 90% or more (almost completely withered)) | 5 (Herbicidal ratio of 90% or more (almost completely withered)) | 5 (Herbicidal ratio of 90% or more (almost completely withered)) | 5 (Herbicidal ratio of 90% or more (almost completely withered)) | 5 (Herbicidal ratio of 90% or more (almost completely withered)) | 4 (Herbicidal ratio of 70% or more and less than 90%) | 5 (Herbicidal ratio of 90% or more (almost completely withered)) | 5 (Herbicidal ratio of 90% or more (almost completely withered)) | – | – | – | – | – | –
COCCOCc1nnc2c(C(=O)Nc3nnnn3C)ccc(C(F)(F)F)n12 [2-014] | 5 (Herbicidal ratio of 90% or more (almost completely withered)) | 5 (Herbicidal ratio of 90% or more (almost completely withered)) | 5 (Herbicidal ratio of 90% or more (almost completely withered)) | – | – | – | – | – | – | – | – | – | – | – | – | – | – | – | – | – | M: herbicidal effect on Abutilon theophrasti (Abutilon theophrasti; [4]): 5 (Herbicidal ratio of 90% or more (almost completely withered)); J: herbicidal effect on Alopecurus myosuroides (Alopecurus myosuroides; [4]): 4 (Herbicidal ratio of 70% or more and less than 90%); N: herbicidal effect on Amaranthus retroflexus (Amaranthus retroflexus; [4]): 5 (Herbicidal ratio of 90% or more (almost completely withered)); L: herbicidal effect on Apera spica-venti. (Apera spica-venti.; [4]): 4 (Herbicidal ratio of 70% or more and less than 90%); I: herbicidal effect on Avena fatua (Avena fatua; [4]): 4 (Herbicidal ratio of 70% or more and less than 90%); O: herbicidal effect on Chenopodium album (Chenopodium album; [4]): 5 (Herbicidal ratio of 90% or more (almost completely withered)); F: herbicidal effect on Digitaria ciliaris (Digitaria ciliaris; [4]): 5 (Herbicidal ratio of 90% or more (almost completely withered)); H: herbicidal effect on Echinochloa crus-galli var. crus-galli [2, 4]: 5 (Herbicidal ratio of 90% or more (almost completely withered)); Q: herbicidal effect on Galium spurium (Galium spurium; [4]): 4 (Herbicidal ratio of 70% or more and less than 90%); K: herbicidal effect on Lolium multiflorum Lam. (Lolium multiflorum Lam.; [4]): 4 (Herbicidal ratio of 70% or more and less than 90%); G: herbicidal effect on Setaria viridis (Setaria viridis; [4]): 5 (Herbicidal ratio of 90% or more (almost completely withered)); R: herbicidal effect on Veronica persica (Veronica persica; [4]): 5 (Herbicidal ratio of 90% or more (almost completely withered))
CCN(C)c1nnc2c(C(=O)Nc3nnc(C)o3)ccc(C(F)(F)F)n12 [1-134] | 1 (Herbicidal ratio of 5% or more and less than 20%) | 3 (Herbicidal ratio of 40% or more and less than 70%) | 3 (Herbicidal ratio of 40% or more and less than 70%) | – | – | – | – | – | – | – | – | – | – | – | – | 4 (Herbicidal ratio of 70% or more and less than 90%) | 1 (Herbicidal ratio of 5% or more and less than 20%) | 3 (Herbicidal ratio of 40% or more and less than 70%) | 1 (Herbicidal ratio of 5% or more and less than 20%) | 0 (Herbicidal ratio of 5% or less (almost no effect)) | O (Chenopodium album) herbicidal effect grade (Chenopodium album; [3]): 5 (Herbicidal ratio of 90% or more (almost completely withered)); F (Digitaria ciliaris) herbicidal effect grade (Digitaria ciliaris; [3]): 4 (Herbicidal ratio of 70% or more and less than 90%); H (Echinochloa crus-galli var. crus-galli) herbicidal effect grade [2, 3]: 5 (Herbicidal ratio of 90% or more (almost completely withered)); Q (Galium spurium) herbicidal effect grade (Galium spurium; [3]): 3 (Herbicidal ratio of 40% or more and less than 70%); K (Lolium multiflorum Lam.) herbicidal effect grade (Lolium multiflorum Lam.; [3]): 1 (Herbicidal ratio of 5% or more and less than 20%); G (Setaria viridis) herbicidal effect grade (Setaria viridis; [3]): 3 (Herbicidal ratio of 40% or more and less than 70%); R (Veronica persica) herbicidal effect grade (Veronica persica; [3]): 4 (Herbicidal ratio of 70% or more and less than 90%)
